Results on 13 compounds are retold here after PubChem BioAssay AID651738 (Southern Research Specialized Biocontainment Screening …, 2012).

Each structure is given as a SMILES string. pIC50: −log10 of the molar value. The source made the active and inactive calls. No rule for the calls is given here.

Assay [1] has as its system Chikungunya virus infected cells, CPE inhibition. In words: Chikungunya virus CPE inhibition, VEEV inhibitor project, cell-based, set 2 (AID 651738).
Test in assay [2]: as above
The note with it: Chikungunya virus infected cells, CPE inhibition; at 50 µM (top of the series).

The pIC50 is −log10 of the IC50, conventionally taken in molar units. Turning to `CN(c1ccc(OCc2ccccc2)cc1)c1nc(=O)c2cccnc2s1`, the pIC50 in assay [1] is 5.76.

As a reminder, the inhibition is the drop in the measured response relative to a control, in per cent. With `CN1CCN(C)C(=Nc2ccc([N+](=O)[O-])cc2C(=O)Nc2ccccc2)C1`, in assay [2], the inhibition was -3.1% (inactive).

Consider `CCN1CCN(C2c3ncccc3C(=O)N2c2ccccc2)CC1` (stereo not drawn), for which, in assay [2], the inhibition was -1.8% (inactive).

On to `COc1ccc(NC(=O)c2cc([N+](=O)[O-])ccc2N=C2CN(C)CCN2C)cc1`, for which, in assay [2], the inhibition is 2.2% (inactive).

For `O=c1c2cc(F)c(F)cc2nc(CN2CCNCC2)n1-c1ccccc1`, in assay [2], the inhibition is -1% (inactive).

Turning to `CN1CCN(C)C(=Nc2ccc(C#N)cc2C(=O)Nc2ccccc2)C1`, the inhibition in assay [2] was 3% (inactive).

As to `COc1ccc(Nc2nc(=O)c3cccnc3s2)cc1`, in assay [2], the inhibition is 11.7% (inactive).

With `CCN1CCN(Cc2nc3ccc([N+](=O)[O-])cc3c(=O)n2-c2ccccc2F)CC1`, the inhibition in assay [2] is -0.8% (inactive).

On to `O=c1c2cc([N+](=O)[O-])ccc2nc(CN2CCCNCC2)n1-c1ccccc1`, for which the inhibition in assay [2] is -3.1% (inactive).

In the case of `COc1ccc(CNc2nc(=O)c3cccnc3s2)cc1`, the inhibition in assay [2] was 0.1% (inactive).

For the compound `CCN1CCN(Cc2nc3ccc(-c4ccccn4)cc3c(=O)n2-c2ccccc2)CC1`, the inhibition in assay [2] is 4.3% (inactive).

Take `CN1CCN(C)C(=Nc2ccc([N+](=O)[O-])cc2C(=O)Nc2ccccc2F)C1`: the inhibition in assay [2] is 8.6% (inactive).

For `O=c1c2cc([N+](=O)[O-])ccc2nc(CN2CCCNC2)n1-c1ccccc1`, the inhibition in assay [2] is -0.2% (inactive).
